Laboratory results as given in BindingDB's records for patent US20240199630 (CNIO, 2024).

Target: Serine/threonine-protein kinase pim-1 (Homo sapiens, UniProt P11309)
Sequence (P11309 whole entry): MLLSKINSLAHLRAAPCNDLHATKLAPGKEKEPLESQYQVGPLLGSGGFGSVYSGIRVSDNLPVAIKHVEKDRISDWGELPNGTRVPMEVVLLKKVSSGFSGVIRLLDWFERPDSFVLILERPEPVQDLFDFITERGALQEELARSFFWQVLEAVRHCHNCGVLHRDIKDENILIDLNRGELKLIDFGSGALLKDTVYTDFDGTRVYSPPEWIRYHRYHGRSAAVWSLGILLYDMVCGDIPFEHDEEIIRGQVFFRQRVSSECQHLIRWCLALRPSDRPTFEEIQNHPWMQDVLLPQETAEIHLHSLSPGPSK

Row | IC50 [nM] | SMILES
1 | 0.9 | CN(CC1CCNCC1)c1nn2c(-c3ccnc(C(F)(F)F)c3)cnc2c2c1N(C)CCO2 [US20240199630, Compound T4.1]
2 | 5.5 | CNCC1CCN(c2nn3c(-c4ccnc(C(F)(F)F)c4)cnc3c3c2N(C)CCO3)CC1 [US20240199630, Compound T4.2]
3 | 8.3 | CN1CCOc2c1c(N1CCC3(CCCNC3)CC1)nn1c(-c3ccnc(C(F)(F)F)c3)cnc21 [US20240199630, Compound T4.6]
4 | 1.1 | CN1CCOc2c1c(N1CCCC3(CCNCC3)C1)nn1c(-c3ccnc(C(F)(F)F)c3)cnc21 [US20240199630, Compound T4.7]
5 | 2 | CN1CCOc2c1c(NC1CC3(CCNCC3)C1)nn1c(-c3ccnc(C(F)(F)F)c3)cnc21 [US20240199630, Compound T4.8]
6 | 0.8 | CN1CCOc2c1c(N1CCC3(CC1)CC(N)C3)nn1c(-c3ccnc(C(F)(F)F)c3)cnc21 [US20240199630, Compound T4.9]
